What all share (test): NCI tumour cell line growth inhibition, 48 h
Test [1] relates to MDA-MB-435.
For test [2], the system named is MDA-MB-231 breast.
Test [3] deals with UACC-62 melanoma.
For test [4], the system named is COLO 205 colon.
In test [5] the test system is NCI-H23 lung.
Test [6] deals with SF-539 CNS.
Test [7] has as its system SNB-19 CNS.
Test [8] has as its system SNB-75 CNS.
In test [9] the test system is MDA-N.
For test [10], the system named is SF-268 CNS.
Test [11] deals with ACHN renal.
Test [12] concerns SK-MEL-5 melanoma.
Test [13] deals with SN12C renal.
Test [14] has as its system HCT-15 colon.
For test [15], the system named is U251 CNS.
For test [16], the system named is SK-OV-3 ovarian.
For test [17], the system named is IGROV1 ovarian.
Test [18] deals with OVCAR-8 ovarian.
For test [19], the system named is RPMI-8226 leukemia.

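Results reflect a 48-hour exposure of cells in 96-well plates to compound at five concentrations. TGI is the concentration that stops growth completely.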

On to `Cc1cn(C2CC(N=[N+]=[N-])C(COP(=O)(O)OCC3OC(n4cc(F)c(=O)[nH]c4=O)CC3O)O2)c(=O)[nH]c1=O` (stereo unspecified), for which the TGI is over 100 µM in [1]; over 100 µM in [2]; over 100 µM in [3]; over 100 µM in test [4]; over 79.7 µM in [5]; over 44 µM in test [6]. For the same compound, the TGI in [7] was over 31.6 µM; in [8] it was 21.6 µM; in test [9], over 100 µM; in test [10], over 100 µM; in test [11], over 100 µM; in [12], over 100 µM. Moreover, the TGI in test [13] was over 100 µM; in [14] it was over 100 µM; in [15], over 100 µM; in test [16] it was over 100 µM; in test [17] it was 9.57 µM; in test [18], over 100 µM.
Regarding `COC(=O)[C@@](NC(=O)OCc1ccccc1)([C@H](C)O)C(F)(F)F`, the TGI in test [1], in test [2], in test [3], in test [4], in [5] and in [7] was over 100 µM each time. In addition, the TGI in test [8], in [19], in test [10], in [11], in test [12] and in test [14] was over 100 µM throughout. Further, the TGI in test [15], in test [16], in [17] and in [18] was over 100 µM throughout.
For `O=[N+]([O-])c1cccc(Nc2nc(Cl)nc(Cl)n2)c1`, the TGI in [3], in [4], in test [5], in test [6], in [7] and in test [8] was over 100 µM throughout. Further, the TGI in test [19], in test [10], in [11], in test [12], in [13] and in [14] was over 100 µM each time. Besides, the TGI in [15], in test [16] and in [18] was over 100 µM in each case.
Take `Cc1cc(NS(=O)(=O)c2ccc(N=[N+]([O-])c3ccc(S(=O)(=O)Nc4cc(C)on4)cc3)cc2)no1`: the TGI in [1], in test [2], in [3], in test [4], in test [5] and in test [6] was over 100 µM in each case. Further, the TGI in test [7], in [8], in test [19], in test [10], in test [11] and in test [12] was over 100 µM in each case. Moreover, the TGI in test [13], in test [14], in [15], in [16], in test [17] and in [18] was over 100 µM throughout.
As to `O=C(NCCN1CCCCC1)c1cccc(I)c1`, the TGI in test [3], in test [5], in [6], in test [7], in test [8] and in [19] was over 100 µM throughout. Also, the TGI in test [10], in test [11], in test [12], in [13], in test [14] and in test [15] was over 100 µM each time. In addition, the TGI in test [16], in [17] and in test [18] was over 100 µM in each case.
Regarding `C1CSCC2(COC2)CSCCSCC2(COC2)CS1`, the TGI in test [1], in [2], in test [3], in test [4], in test [5] and in [6] was over 100 µM throughout. Further, the TGI in test [7], in test [8], in [9], in [10], in test [12] and in test [13] was over 100 µM each time. In addition, the TGI in test [14], in test [15], in [16], in test [17] and in test [18] was over 100 µM in each case.
For `Cn1nnc2c3c(N(CCO)CCO)ccnc3ccc21`, the TGI in test [1], in [2], in [3], in [4], in test [5] and in [6] was over 100 µM in each case. The TGI in test [7], in test [8], in test [9], in test [10], in test [11] and in test [12] was over 100 µM in each case. Besides, the TGI in test [13], in [14], in test [16], in test [17] and in [18] was over 100 µM throughout.
Consider `COc1cc([C@@H]2c3cc4c(cc3[C@@H](Nc3ccc(Cl)cc3C(=O)c3ccccc3)[C@H]3COC(=O)[C@H]23)OCO4)cc(OC)c1OC`, for which the TGI is over 100 µM in [2]; over 100 µM in test [3]; over 29.6 µM in [5]; 0.669 µM in test [6]; over 85.1 µM in [7]; over 100 µM in test [19]. The TGI in [9] is over 93.6 µM; in test [10], over 100 µM; in test [11], over 100 µM; in [12] it was 16 µM; in [13] it was over 100 µM; in test [15], 0.576 µM. The TGI is over 100 µM in [16], 7.6 µM in [17] and over 100 µM in test [18].

The values above are taken from PubChem BioAssay (NCI).
